# Data reported in US8318781B2, “G-protein-conjugated receptor agonist” (Japan Science and Technology Agency, priority 2007, dated 2012).
# pEC50: −log10 of the molar value. Like-named read-outs stand apart in the source and are kept apart here.
# Key:
# Format in all cases: cell-based
# human GPR40 (hGPR40) [1] = biological target: T1, human GPR40 (hGPR40) (Homo sapiens, UniProt O14842); test: ERK assay, screening for GPR40 ligands in cell line TXGPR40; details: TXGPR40 cells; for ERK/GPR40 10 μM: ligand 10 μM; for ERK/GPR40 10 μM / ERK/GPR40 100 μM: class relative to LA; for ERK/GPR40 100 μM: ligand 100 μM
# T1 construct: expressed in transfected cells; doxycycline-inducible expression vector
# Protocol: (§1) This Test 1 was carried out by using the following materials and methods.
# (§2) (1) In this test, the cell lines TXGPR40 and TXGPR120 were plated in 35-mm dishes in 5×10^5 cells/per dish.
# (§3) Each ligand was dissolved in DMSO, diluted tenfold with the medium to make the total amount of 100 μl. DMSO was used as the negative control, and PMA (phorbol-12-myristate-13-acetate) was used as the positive control.
# (§4) (3) The medium was removed from the dish of the cell to reduce the total amount of liquid to 0.9 ml.
# (§5) (4) The ligand solution was added dropwise to the cell solution, and dispersed by gently shaking the dish, and allowed to react at room temperature.
# (§6) (5) After 5 minutes of reaction, the medium was discarded, and the remaining medium on the dish was removed on ice using an aspirator.
# (§7) (6) 150 μl of Lysis buffer (50 mM HEPES (pH 7.0), 150 mM NaCl, 10% glycerol, 1% NonidetP-40, 2 mM MgCl2, 1 mM EDTA, 100 mM NaF, 10 mM sodium phosphate, 1 mM Na3VO4, 20 mM β-glycerophosphate, and Proteinase inhibitor) were added, then the cells were collected using a cell scraper.
# (§8) (1) The crude enzyme solution mixed with SDS Sample Buffer was subjected to ultrasonication with a sonifier, then incubated at 90° C. for five minutes.
# (§9) (2) The mixture was vortexed and centrifuged at 15,000 rpm for five minutes at 4° C.
# (§10) (3) The supernatant of the centrifuged sample was applied to two 7.5% acrylamide gel slabs placed in an electrophoresis tank filled with 1×SDS-PAGE Running Buffer (25 mM Tris, 0.2 M Glycin, and 1% SDS). Electrophoresis was carried out under a constant current of 40 mA for about 80 to 90 minutes.
# (§11) (1) A PVDF membrane cut in the same size as the gel slab was immersed in methanol for about 15 seconds and then shaken in Transfer Buffer C solution (25 mM Tris, 0.02% SDS, 2% methanol and 40 mM 6-aminohexanoic acid) at room temperature to swell for 15 minutes. Filter paper for blotting was cut into a 10-cm square.
# (§12) (2) On the blotting apparatus were placed sequentially two pieces of filter paper immersed in A solution (0.3 M Tris, 0.02% SDS and 2% methanol), two pieces of filter paper immersed in B solution (25 mM Tris, 0.02% SDS and 2% methanol), and the membrane thereon. The gel slab after electrophoresis, and finally two pieces of filter paper immersed in C solution was placed thereon, and the apparatus was closed.
# (§13) (3) The protein was transferred to the membrane at 15 V for 30 minutes.
# (§14) (1) The following procedure was all carried out at room temperature. After the protein transfer, the membrane was placed into a vial containing 1×TTBS (0.2 M Tris, 1.5 M NaCl, 0.2% Tween 20) and washed for 15 minutes.
# (§15) (2) TTBS was discarded, and about 10 ml of Block Ace was added and blocked on a shaker for one hour.
# (§16) (1) The primary antibodies (p44/42 MAP Kinase Antibody and Phospho-p44/42 MAP Kinase Antibody) were each diluted 1000-fold with TTBS.
# (§17) (2) After blocking, the Block Ace solution was removed, the solution of the primary antibody was added and allowed to react on the shaker for two hours.
# (§18) (1) The secondary antibody (Anti-rabbit Ig, Horseradish Peroxidase linked F(ab′)2 fragments) was diluted 5000-fold with TTBS.
# (§19) (2) The primary antibody solution was removed and the membrane was washed three times on the shaker in TTBS for five to ten minutes each.
# (§20) (3) TTBS was removed and the solution of secondary antibody was added and left for 1 hour on the shaker.
# (§21) (1) 2 ml each of Detection Reagent 1 and Detection Reagent 2 from ECL kit were mixed together on ice.
# (§22) (2) The solution of secondary antibody was removed from the membrane reacted with the secondary antibody and then washed three times on the shaker in TTBS for five minutes each.
# (§23) (3) The liquid was thoroughly removed from the membrane, which was then placed in a plastic bag, and 2 ml of the Detection Reagent mixture was added per each membrane.
# (§24) (4) The membrane was kept in contact with a film in the cassette for one to five minutes, and the film was developed using an automatic developing machine.
# human GPR120 (hGPR120) [2] = biological target: T2, human GPR120 (hGPR120) (Homo sapiens, UniProt Q5NUL3); test: ERK assay, screening for GPR120 ligands in cell line TXGPR120; details: TXGPR120 cells; for ERK/GPR120 10 μM: ligand 10 μM; for ERK/GPR120 10 μM / ERK/GPR120 100 μM: class relative to LA; for ERK/GPR120 100 μM: ligand 100 μM;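 on ERK/GPR120 10 μM: signals normalized between DMSO and PMA controls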
# T2 construct: expressed in transfected cells; doxycycline-inducible expression vector
# T2 sequence (Q5NUL3 1-361): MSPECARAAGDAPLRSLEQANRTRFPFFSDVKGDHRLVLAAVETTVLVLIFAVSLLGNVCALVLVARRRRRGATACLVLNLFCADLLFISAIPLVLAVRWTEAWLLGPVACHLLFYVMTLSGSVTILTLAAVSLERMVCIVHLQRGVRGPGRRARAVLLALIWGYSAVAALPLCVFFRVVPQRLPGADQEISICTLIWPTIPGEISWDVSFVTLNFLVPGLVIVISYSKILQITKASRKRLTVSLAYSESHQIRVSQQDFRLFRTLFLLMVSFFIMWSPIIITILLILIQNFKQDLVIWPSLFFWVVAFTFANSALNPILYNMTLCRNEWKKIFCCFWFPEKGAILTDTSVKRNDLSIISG
# Protocol: as §1, §2, §3, §4, §5, §6, §7, §8, §9, §10, §11, §12, §13, §14, §15, §16, §17, §18, §19, §20, §21, §22, §23, §24
# human GPR40 (hGPR40) [3] = biological target: T1, human GPR40 (hGPR40); test: Determination of intracellular Ca2+ concentration (FLIPR), cell line TXGPR40; details: for agonistic activity for GPR40 (in words): cells in which GPR40 has been transgenically expressed; for [Ca^2+]/GPR40 10 μM (ratio vs. LA): relative fluorescence intensity vs LA at 10 μM; for [Ca^2+]/GPR40 10 μM (ratio vs. LA) / EC50: TXGPR40 cells; for EC50: maximum fluorescence intensity vs ligand concentration, read-out: [Ca^2+]/GPR40 pEC50 (converted)
# Protocol: (§25) (1) In this test, The cell lines TXGPR40, TXGPR120 and GPR120/Flp-in were plated onto a collagen-coated black 96-well plate in 2×10^5 cells/well. The 96-well plates containing the cells were centrifuged and treated with Doxycycline (final concentration 10 μg/mL), incubated in a CO2 incubator for 21 hours, then used for assay.
# (§26) (2) The ligand used in this test includes NCP04, NCP14, NCG20, NCG21, NCG22, NCG23, NCP02, NCP03, NCP05, NCP06, NCG14, NCG17, NCG19, NCG28, NCG29, NCG30, NCG31, NCG34, NCG35, NCG37, NCG38, NCG44, NCG45, NCG46, and NCG54. Each ligand was dissolved in DMSO and adjusted to the concentration of 10 mM, then diluted with Hanks' Balanced Salt Solution (pH 7.4) containing 20 mM HEPES (referred to as FLIPR buffer hereinafter) to the final concentration of 1 to 100 μM. 1% DMSO was used as the negative control, and LA was used as the positive control.
# (§27) The ligands and controls were placed in different 96-well plates from the plates for the cells.
# (§28) (3) The 96-well plate containing the cells was removed from the CO2 incubator. A fluorescent dye prepared in a twofold higher concentration (Ca Assay Kit Component A diluted with FLIPR Buffer) was added in 50 μL/well, then allowed to stand in the dark at room temperature for one hour.
# (§29) (4) After one hour, the 96-well plate containing the cells and the 96-well plate in which ligands and controls were prepared were set on FLIPR (Fluorometric Imaging Plate Reader) for determination.
# (§30) (5) Fluorometry using FLIPR was carried out at a laser output of 1.0 W for five minutes. […] after the start of the determination, the ligand (25 μL) was added dropwise to the cell plate at a rate of 50 μL/sec. The intensity of fluorescence was automatically digitized by the application program installed in the FLIPR from the image taken by the CCD camera (with exposure time of 0.40 sec). The interval of data sampling was one second for the initial one minute after the start of operation, and six seconds for the subsequent four minutes.
# (§31) (6) The maximum fluorescence intensity was obtained from the data showing the change in the fluorescence intensity over time observed in each well. The maximum fluorescence intensity was plotted against ligand concentration, and pEC50 was calculated. The ratio of the fluorescence intensity for each ligand to LA at 10 μM was calculated as the relative intensity of each ligand.
# human GPR120 (hGPR120) [4] = biological target: T2, human GPR120 (hGPR120); test: Determination of intracellular Ca2+ concentration (FLIPR), cell line TXGPR120; details: for agonistic activity for hGPR120 (in words): cells in which GPR120 has been transgenically expressed; for [Ca^2+]/GPR120 10 μM (ratio vs. LA): relative fluorescence intensity vs LA at 10 μM, TXGPR120 cells
# Protocol: as §25, §26, §27, §28, §29, §30, §31
# human GPR120 (hGPR120) [5] = biological target: T2, human GPR120 (hGPR120); test: Determination of intracellular Ca2+ concentration (FLIPR), cell line GPR120/Flp-in; details: for [Ca^2+]/GPR120/Flp-In 10 μM (ratio vs. LA): relative fluorescence intensity vs LA at 10 μM; for [Ca^2+]/GPR120/Flp-In 10 μM (ratio vs. LA) / EC50: GPR120/Flp-in cells; for EC50: maximum fluorescence intensity vs ligand concentration, read-out: [Ca^2+]/GPR120/Flp-In pEC50 (converted)
# Protocol: as §25, §26, §27, §28, §29, §30, §31
# T1 sequence (O14842 whole entry): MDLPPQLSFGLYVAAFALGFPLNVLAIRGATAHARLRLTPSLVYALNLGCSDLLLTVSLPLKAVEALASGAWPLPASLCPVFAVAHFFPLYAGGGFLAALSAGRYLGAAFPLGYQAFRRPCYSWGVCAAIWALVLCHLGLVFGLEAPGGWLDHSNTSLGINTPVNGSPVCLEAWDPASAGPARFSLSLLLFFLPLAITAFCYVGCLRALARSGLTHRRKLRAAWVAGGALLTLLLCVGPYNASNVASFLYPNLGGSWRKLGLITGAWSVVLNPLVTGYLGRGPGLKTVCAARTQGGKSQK
Structure (SMILES),ERK activation for GPR40 (in words) (human GPR40 (hGPR40) [1]; FIGS. 1-4),ERK/GPR40 10 μM (human GPR40 (hGPR40) [1]),ERK/GPR40 100 μM (human GPR40 (hGPR40) [1]),ERK activation for GPR120 (in words) (human GPR120 (hGPR120) [2]; FIGS. 5-8),ERK/GPR120 10 μM (human GPR120 (hGPR120) [2]),ERK/GPR120 100 μM (human GPR120 (hGPR120) [2]),pEC50 (human GPR40 (hGPR40) [3]),agonistic activity for GPR40 (in words) (human GPR40 (hGPR40) [3]),[Ca^2+]/GPR40 10 μM (ratio vs. LA) (human GPR40 (hGPR40) [3]),pEC50 (human GPR120 (hGPR120) [4]),agonistic activity for hGPR120 (in words) (human GPR120 (hGPR120) [4]),[Ca^2+]/GPR120 10 μM (ratio vs. LA) (human GPR120 (hGPR120) [4]),pEC50 (human GPR120 (hGPR120) [5]),[Ca^2+]/GPR120/Flp-In 10 μM (ratio vs. LA) (human GPR120 (hGPR120) [5]),EC50 (human GPR40 (hGPR40) [3]) [µM],EC50 (human GPR120 (hGPR120) [5]) [µM],"selectivity between GPR40 and GPR120 (in words), from Tables 3 and 4 (human GPR120 (hGPR120) [4]; GPR40 versus GPR120, Ca2+ and ERK results)"
O=C(O)CCCc1ccc(OCCN(c2ccccc2)c2cc(Cl)ccn2)cc1 [NCG35],strongly activated ERK,+++ (+++ denotes a higher value than LA),+++ (+++ denotes a higher value than LA),strongly activate ERK,+++ (+++ denotes a higher value than LA),+++ (+++ denotes a higher value than LA),5.11,showed a specific reactivity,0.68,4.79,exhibit a similar effect,0.61,5.34,1.00,,,
CCCCCN(CCOc1ccc(CCC(=O)O)cc1)c1ccccn1 [NCP05],,+++ (+++ denotes a higher value than LA),+++ (+++ denotes a higher value than LA),,+ (+ denotes 0 to 100% of LA),+++ (+++ denotes a higher value than LA),,showed a specific reactivity,1.22,,exhibit a similar effect,0.00,,0.45,5.62,11.5,
CS(=O)(=O)NC(=O)CCc1ccc(NCc2cccc(Oc3ccccc3)c2)cc1 [NCG19],,++ (++ denotes 50 to 100% of LA),,,,,,showed a specific reactivity,1.29,,exhibit a similar effect,0.04,,0.33,2.88,17,selective agonists for GPR40
CCCCCCN(CCOc1ccc(CCC(=O)O)cc1)c1ccccn1 [NCP06],,,,,,,,,,,exhibit a similar effect,,,,,,
